Reference: patent US7662748B2, “Formulations comprising triazoles and alkoxylated amines” (Janssen Pharmaceutica, N.V., priority 2002, dated 2010)

Legend:
[1] = tested on: Erisiphe graminis; test: Fungicidal activity versus powdery mildew on wheat plants; type: in vivo, Erisiphe graminis on winter wheat plants, variety Corvus; conditions: propiconazole 0, ethoduomeen C/13 16 ppm a.i.; day 17; mean of 4 replicates
[2] = tested on: Erisiphe graminis; test: as above; type: in vivo, Erisiphe graminis on winter wheat plants, variety Corvus; conditions: day 17, mean of 4 replicates
Protocol: • Test model: Winter wheat plants, variety Corvus, were sprayed with the test solutions till run off. Treated plants were incubated in the glasshouse and dusted with Erisiphe graminis conidia after drying. • Test solutions: • 1) aqueous solutions were prepared by diluting a commercial propiconazole formulation “Tilt® 250 EC” until spray solutions were obtained comprising 8, 16, 20, and 24 ppm of propiconazole. • 2) aqueous solutions were prepared comprising of 40, 80, 160, 320, 640, 1280, and 2560 ppm of N,N′,N′-tris(2-hydroxyethyl)-N-cocoalkyl-1,3-diamino-propane (i.e. ethoduomeen C/13). • 3) to aqueous solutions comprising 8 and 16 ppm of propiconazole an amount of “ethoduomeen C/13” was added yielding test solutions wherein the ratio of propiconazole over “ethoduomeen C/13” is 1/160, 1/80, 1/40, 1/20, 1/10 and 1/5.
The commercial “Tilt® 250 EC” formulation comprises 25% (w/v) of propiconazole dissolved in an aromatic petroleum hydrocarbon liquid mixture.
On day 17 after dusting the wheat plants with Erisiphe graminis the % inhibition of fungal growth was evaluated.

Compound | % Fungicidal activity versus E. graminis [1] [%] | % Fungicidal activity versus E. graminis ([2]; propiconazole 0, ethoduomeen C/13 40 ppm a.i.) [%] | % Fungicidal activity versus E. graminis ([2]; propiconazole 0, ethoduomeen C/13 80 ppm a.i.) [%] | % Fungicidal activity versus E. graminis ([2]; propiconazole 0, ethoduomeen C/13 320 ppm a.i.) [%] | % Fungicidal activity versus E. graminis ([2]; propiconazole 0, ethoduomeen C/13 640 ppm a.i.) [%] | % Fungicidal activity versus E. graminis ([2]; propiconazole 0, ethoduomeen C/13 1280 ppm a.i.) [%] | % Fungicidal activity versus E. graminis ([2]; propiconazole 0, ethoduomeen C/13 2560 ppm a.i.) [%] | % Fungicidal activity versus E. graminis ([2]; propiconazole 8 ppm a.i., ethoduomeen C/13 0) [%] | % Fungicidal activity versus E. graminis ([2]; propiconazole 16 ppm a.i., ethoduomeen C/13 0) [%] | % Fungicidal activity versus E. graminis ([2]; propiconazole 20 ppm a.i., ethoduomeen C/13 0) [%] | % Fungicidal activity versus E. graminis ([2]; propiconazole 24 ppm a.i., ethoduomeen C/13 0) [%]
N,N′,N′-tris(2-hydroxyethyl)-N-cocoalkyl-1,3-diamino-propane [ethoduomeen C/13] | 0 | 0 | 0 | 0 | 0 | 0 | 0 | – | – | – | –
CCCC1COC(Cn2cncn2)(c2ccc(Cl)cc2Cl)O1 (centres unmarked) [propiconazole, 1-[[2-(2,4-dichlorophenyl)-4-propyl-1,3-dioxolan-2-yl]methyl]-1H -1,2,4-triazole] | – | – | – | – | – | – | – | 25 | 50 | 50 | 80
